Test results taken from patent US7563813B2, “Iminothiazolidinone derivatives as SFRP-1 antagonists” (Wyeth, priority 2005, dated 2009).

Biological target: T1, hSFRP-1 (Homo sapiens, UniProt Q8N474)
T1 construct: expressed in transfected cells; host or cells: U2OS osteosarcoma cells (ATCC, HTB 96), transient co-transfection with Wnt 3, Wnt3A or Wnt 1, 16x TCF-tk-Luciferase reporter and CMV-beta-gal
T1 sequence (Q8N474 32-314): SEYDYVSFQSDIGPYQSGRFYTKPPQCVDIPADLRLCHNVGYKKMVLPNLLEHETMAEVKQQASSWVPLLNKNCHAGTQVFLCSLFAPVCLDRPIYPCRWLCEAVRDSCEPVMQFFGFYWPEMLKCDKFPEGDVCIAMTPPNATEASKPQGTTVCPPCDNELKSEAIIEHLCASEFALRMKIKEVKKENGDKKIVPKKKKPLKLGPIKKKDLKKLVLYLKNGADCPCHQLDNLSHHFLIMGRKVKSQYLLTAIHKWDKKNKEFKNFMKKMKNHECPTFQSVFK
Experiment: Cell-Based Assay for In Vitro Measurement of SFRP-1/SARP2 Antagonist Activity (U2OS cells, 16x TCF-tk-Luciferase reporter, Wnt + hSFRP-1 co-transfection)
Conditions: initial single dose screening at 10 μM; for fold induction at 10 µM: luciferase reporter activity, fold induction over SFRP-1 control; for Ratio: ratio not defined
Protocol: Cell-Based Assay for In Vitro Measurement of SFRP-1/SARP2 Antagonist Activity
The following cell-based assay can be used to identify inhibitors of SFRP-1.
The osteosarcoma cell line, U2OS (ATCC, HTB 96), was passaged twice a week with growth medium (McCoy's SA medium containing 10% (v/v) fetal calf serum, 2 mM GlutaMAX-1, and 1% (v/v) Penicillin-Streptomycin). The cells were maintained in vented flasks at 37° C. inside a 5% CO2/95% humidified air incubator. One day prior to transfection, the cells were plated with growth medium at 25,000 cells/well into 96-well plates and incubated at 37° C. overnight.
The growth medium was removed, and the cells were washed once with OPTIMEM I (Gibco-BRL) medium (100 μl/well) to remove the serum and antibiotics. The wash medium was removed, and the cells were re-fed with OPTI-MEM I medium (100 μl/well). For each well of cells to be transfected, the following DNA's were diluted together in 25 μl OPTI-MEM I medium: 0.1 μg 16× TCF-tk-Luciferase reporter, 0.02 μg Wnt 3, Wnt3A, Wnt 1 or empty vector (Upstate Biotechnology), 0.075 μg hSFRP-1 or empty vector (pcDNA3.1, Invitrogen), and 0.025 μg CMV-®gal (Clonetech). For each well of cells to be transfected, 1 μl of Lipofectamine 2000 reagent (Invitrogen) was diluted in 25 μl OPTI-MEM I medium and incubated at room temperature for 5 minutes. The diluted DNA's were then combined with the diluted Lipofectamine 2000 (LF2000), and the mixture was incubated at room temperature for 20 minutes. Fifty μl of the DNA-LF 2000 mixture was added to each well, and the plate(s) were incubated at 37° C. in a 5% CO2/95% humidified air incubator for 4 hours. The cells were washed once with 150 μl/well of experimental medium (phenol red-free RPMI Medium 1640 containing 2% fetal bovine serum, 2 mM GlutaMAX-1, and 1% Penicillin-Streptomycin). Finally, the cells were treated overnight at 37° C. with 200 μl/well of experimental medium containing either vehicle (typically DMSO) or diluted compound in replicates of 8 wells/compound.
Initial single dose screening of test compounds was done at 10 μM.
Dose-response experiments were initially performed with the compounds in log increases from 1-10,000 nM. From these dose-response curves, EC50 values were generated.
After treatment, the cells were washed twice with 150 μl/well of PBS without calcium or magnesium and were lysed with 50 μl/well of 1× cell culture lysis reagent (Promega Corporation) on a shaker at room temperature for 30 minutes. Thirty μl aliquots of the cell lysates were transferred to 96-well luminometer plates, and luciferase activity was measured in a MicroLumat PLUS luminometer (EG&G Berthold), or a Victor (PerkinElmer Life Sciences) using […] of luciferase substrate (Promega Corporation). Following the injection of substrate, luciferase activity was measured for 10 seconds after a 1.6 second delay. Similarly, 10 μl aliquots of the cell lysates were transferred to separate 96-well luminometer plates, and 50 μl of Galacton chemiluminescent substrate (Tropix) was added to each well. The plates were covered and incubated on a rotary shaker at room temperature for one hour. ®gal activity was measured in a MicroLumat PLUS luminometer or Victor using 100 μl/well of Light Emission Accelerator (Tropix). Following the injection of the accelerator, ®gal activity was measured for 10 seconds after a 1.6 second delay. The luciferase and ®gal activity data were transferred from the luminometer to a PC and analyzed using the SAS/Excel program. After the luciferase activity was normalized to ®gal, the SAS/Excel program was used to determine the mean and standard deviation of each treatment, to analyze the data for statistical significance, and to determine EC50 values.
As an alternative to co-transfection in a 96 well plate, the U2OS cells were transfected in T225 flasks and the transfected cells were frozen. The frozen cells were thawed and plated on a 96 well plate and the assay was carried out as detailed above. […]

Compound | fold induction at 10 µM | Ratio
COC(=O)c1cc(-c2ccc(Cl)cc2)sc1NC(=O)CC1SC(=N)NC1=O (stereo not shown) [Example 57, methyl 5-(4-chlorophenyl)-2-{[(2-imino-4-oxo-1,3-thiazolidin-5-yl)acetyl]amino}thiophene-3-carboxylate] | 0.9 | 0.8
CCOC(=O)c1c(NC(=O)CC2SC(=N)NC2=O)sc(Br)c1CBr (stereo not shown) [Example 59, Ethyl 5-bromo-4-(bromomethyl)-2-{[(2-imino-4-oxo-1,3-thiazolidin-5-yl)acetyl]amino}thiophene-3-carboxylate] | 1.1 | 1.4
CCOC(=O)c1c(NC(=O)CC2SC(=N)NC2=O)sc(Br)c1CN(C)c1ccc(Cl)cc1 (stereo not shown) [Example 61, ethyl 5-bromo-4-{[(4-chlorophenyl)(methyl)amino]methyl}-2-{[(2-imino-4-oxo-1,3-thiazolidin-5-yl)acetyl]amino}thiophene-3-carboxylate] | 0.7 | 1.0
CCOC(=O)c1c(NC(=O)CC2SC(=N)NC2=O)sc(Br)c1CNc1ccc(F)cc1 (stereo not shown) [Example 62, ethyl 5-bromo-4-{[(4-fluorophenyl)amino]methyl}-2-{[(2-imino-4-oxo-1,3-thiazolidin-5-yl)acetyl]amino}thiophene-3-carboxylate] | 2 | 2.2
CCOC(=O)c1c(NC(=O)CC2SC(=N)NC2=O)sc(Br)c1CNC1CCCC1 (stereo not shown) [Example 63, ethyl 5-bromo-4-[(cyclopentylamino)methyl]-2-{[(2-imino-4-oxo-1,3-thiazolidin-5-yl)acetyl]amino}thiophene-3-carboxylate] | 1.5 | 1.1

Next, values leading:

fold induction at 10 µM | Ratio | Compound
0.9 | 0.9 | COC(=O)c1cc(-c2ccccc2)sc1NC(=O)CC1SC(=N)NC1=O (stereo not shown) [Example 56, methyl 2-{[(2-imino-4-oxo-1,3-thiazolidin-5-yl)acetyl]amino}-5-phenylthiophene-3-carboxylate]
0.7 | 0.7 | CCOC(=O)c1c(NC(=O)CC2SC(=N)NC2=O)sc(-c2ccccc2)c1C (stereo not shown) [Example 58, ethyl 2-{[(2-imino-4-oxo-1,3-thiazolidin-5-yl)acetyl]amino}-4-methyl-5-phenylthiophene-3-carboxylate]
2.7 | 2.4 | CCOC(=O)c1c(NC(=O)CC2SC(=N)NC2=O)sc(Br)c1CNc1ccccc1 (stereo not shown) [Example 60, Ethyl 4-(anilinomethyl)-5-bromo-2-{[(2-imino-4-oxo-1,3-thiazolidin-5-yl)acetyl]amino}thiophene-3-carboxylate]
